Measured values: patent publication US20100249071A1, “Modulators of S1P and Methods of Making And Using” (Exelixis, Inc., priority 2009, published 2010)
Where two headings read alike, the source gives them in different places.

Key:
[1] = target: T1, hS1PR5 (hEdg8) membrane protein (Homo sapiens, UniProt Q9H228); experiment: hS1P5R GTPγS binding assay (Assay 4); assay type: biochemical
T1 construct: expressed in transfected cells; host or cells: CHO
Outline: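 Membranes (5 μg) from CHO cells expressing hS1PR5, incubated 1 h at room temperature with 30 μM GDP, 0.1 nM [35S]GTPγS, 0.25% fatty acid free BSA and serially diluted compound in pH 7.9 Tris buffer with MgCl2. WGA SPA beads added for another 1 h, then bound [35S]GTPγS counted by scintillation.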

[2] = target: T2, hS1P1R (hEdg1) membrane protein (Homo sapiens, UniProt P21453); experiment: hS1P1R GTPγS binding assay (Assay 3a); assay type: biochemical
T2 construct: purchased Lonza
T2 sequence (P21453 whole entry): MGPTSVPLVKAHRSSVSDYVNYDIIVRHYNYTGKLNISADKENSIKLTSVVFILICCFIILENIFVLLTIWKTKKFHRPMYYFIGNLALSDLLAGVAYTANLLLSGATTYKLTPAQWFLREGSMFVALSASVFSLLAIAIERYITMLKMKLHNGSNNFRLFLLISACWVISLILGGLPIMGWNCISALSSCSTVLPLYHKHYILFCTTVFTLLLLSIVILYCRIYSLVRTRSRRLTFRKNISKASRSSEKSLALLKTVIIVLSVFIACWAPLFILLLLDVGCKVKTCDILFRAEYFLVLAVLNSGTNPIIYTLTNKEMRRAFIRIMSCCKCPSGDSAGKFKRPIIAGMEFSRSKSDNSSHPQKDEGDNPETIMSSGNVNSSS
Outline: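 Membranes (4 μg) expressing hS1P1R incubated 1 h at room temperature with 30 μM GDP, 0.1 nM [^35S]GTPγS, 0.25% fatty acid free BSA and serially diluted agonist in Tris-HCl pH 7.9/NaCl/MgCl2/EGTA buffer. Bound [^35S]GTPγS captured on WGA SPA beads (further 1 h) and counted.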

S1P3 = target: T3, S1P3 (Homo sapiens, UniProt Q99500); experiment: S1P3 Tango β-arrestin recruitment assay in HEK293 cells (Assay 5); assay type: cell-based
T3 construct: host or cells: HEK293 (transient transfection)
T3 sequence (P32121 whole entry): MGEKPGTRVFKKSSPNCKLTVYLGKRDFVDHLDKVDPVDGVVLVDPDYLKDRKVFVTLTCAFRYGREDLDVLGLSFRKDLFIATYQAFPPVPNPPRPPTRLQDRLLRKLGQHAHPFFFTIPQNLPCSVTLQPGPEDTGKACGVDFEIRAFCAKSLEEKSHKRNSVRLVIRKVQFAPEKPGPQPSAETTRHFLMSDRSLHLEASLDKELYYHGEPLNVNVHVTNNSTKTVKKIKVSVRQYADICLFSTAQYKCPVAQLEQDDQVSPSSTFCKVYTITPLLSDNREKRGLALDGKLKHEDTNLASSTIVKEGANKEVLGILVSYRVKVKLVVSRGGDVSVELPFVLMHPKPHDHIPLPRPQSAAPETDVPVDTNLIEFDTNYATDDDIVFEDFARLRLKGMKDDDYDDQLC
T3 sequence (Q99500 whole entry): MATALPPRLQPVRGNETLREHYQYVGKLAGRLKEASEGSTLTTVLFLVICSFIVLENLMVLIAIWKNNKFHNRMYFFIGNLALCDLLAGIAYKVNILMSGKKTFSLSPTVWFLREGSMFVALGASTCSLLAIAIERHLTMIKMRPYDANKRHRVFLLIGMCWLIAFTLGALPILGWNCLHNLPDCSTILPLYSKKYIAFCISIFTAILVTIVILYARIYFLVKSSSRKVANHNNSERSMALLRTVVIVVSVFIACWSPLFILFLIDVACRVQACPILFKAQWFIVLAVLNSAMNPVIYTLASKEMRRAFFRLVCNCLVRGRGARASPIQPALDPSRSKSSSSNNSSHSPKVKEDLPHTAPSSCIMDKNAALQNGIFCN
Outline: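 HEK293 cells transiently expressing S1P3 fused via TEV-cleavable linker to tTA, with β-arrestin2–TEV, treated 16-18 h at 37 °C with compounds (top 10 μM, 10-point 3-fold, 1% DMSO). Luciferase reporter luminescence normalised to DMSO background and 5 μM S1P control as percent activity; EC50 from concentration-response curves.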

S1P1 = target: T4, S1P1 (Homo sapiens, UniProt P21453); experiment: Tango β-arrestin recruitment assay in U2OS cells (Assay 2b); assay type: cell-based
T4 construct: host or cells: U2OS
T4 sequence (P32121 whole entry): as the sequence (P32121 whole entry) above
T4 sequence (P21453 whole entry): as the sequence (P21453 whole entry) above
Outline: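 In this agonist-mode Tango assay, U2OS cells carrying S1P1 and the reporter were serum-starved 48 h, then exposed overnight at 37 °C to compound (10 points, 3-fold, top 1 μM, 1% DMSO). β-Lactamase F460/F530 ratio was normalized to 1 μM S1P, and EC50 was fitted.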

[3] = * = rEC50 measured rather than EC50, read-out: Assay 2b rEC50 (relative EC50, cells marked *)

T1 sequence (Q9H228 whole entry): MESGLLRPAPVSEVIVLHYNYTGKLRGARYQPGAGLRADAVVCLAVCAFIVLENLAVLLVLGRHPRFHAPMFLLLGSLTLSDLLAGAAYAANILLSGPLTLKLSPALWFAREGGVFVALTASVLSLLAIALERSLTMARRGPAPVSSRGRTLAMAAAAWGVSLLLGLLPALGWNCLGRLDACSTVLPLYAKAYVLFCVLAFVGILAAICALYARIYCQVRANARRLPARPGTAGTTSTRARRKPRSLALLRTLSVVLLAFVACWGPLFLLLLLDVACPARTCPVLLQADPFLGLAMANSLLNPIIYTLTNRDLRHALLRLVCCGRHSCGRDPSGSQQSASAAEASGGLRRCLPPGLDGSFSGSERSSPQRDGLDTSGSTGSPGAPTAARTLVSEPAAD

| Molecule | EC50 [1] [nM] | EC50 [2] [nM] | EC50 (S1P3; read-out: Assay 5 EC50) [nM] | EC50 (S1P1; read-out: Assay 2b EC50) [nM] | EC50 (S1P1; [3]) [nM] | EC50 (S1P3; * = rEC50 measured rather than EC50, read-out: Assay 5 rEC50 (relative EC50, cells marked *)) [nM] |
| --- | --- | --- | --- | --- | --- | --- |
| CCOc1ccc(-c2nnc(-c3cc(F)c(OC[C@H](N)CO)cc3Cl)s2)cc1C#N [Entry 76, 5-[5-(4-{[(2R)-2-amino-3-hydroxyporpyl]oxy}-2-chloro-5-fluorophenyl)-1,3,4-thiadiazol-2-yl]-2-(ethyloxy)benzonitrile] | 50 to 250 | ≤ 10 | > 10000 | 10 to 50 | – | – |
| COCCOc1ccc(-c2nnc(-c3cc(F)c(OC[C@H](N)CO)cc3Cl)s2)cc1C#N [Entry 78, 5-[5-(4-{[(2R)-2-amino-3-hydroxyporpyl]oxy}-2-chloro-5-fluorophenyl)-1,3,4-thiadiazol-2-yl]-2-{[2-(methyloxy)ethyl]oxy}benzonitrile] | 250 to 2800 | 50 to 250 | > 10000 | 10 to 50 | – | – |
| CC(C)Oc1ccc(-c2nnc(-c3cc(F)c(OC[C@H](N)CO)cc3Cl)s2)cc1C(N)=O [Entry 80, 5-[5-(4-{[(2R)-2-amino-3-hydroxypropyl]oxy}-2-chloro-5-fluorophenyl)-1,3,4-thiadiazol-2-yl]-2-[(1-methylethyl)oxy]benzamide] | 250 to 2800 | 250 to 2800 | > 10000 | – | 250 to 2800 | – |
| CC(C)Nc1ncc(-c2nnc(-c3cc(F)c(OC[C@H](N)CO)cc3Cl)s2)cc1Cl [Entry 81, (2R)-2-amino-3-{[5-chloro-4-(5-{5-chloro-6-[(1-methylethyl)amino]pyridin-3-yl}-1,3,4-thiadiazol-2-yl)-2-fluorophenyl]oxy}propan-1-ol] | 250 to 2800 | 10 to 50 | > 10000 | 10 to 50 | – | – |
| CC(C)Nc1ncc(-c2nnc(-c3cc(F)c(OC[C@H](N)CO)cc3Cl)s2)cn1 [Entry 89, (2R)-2-amino-3-{[5-chloro-2-fluoro-4-(5-{2-[(1-methylethyl)amino]pyrimidin-5-yl}-1,3,4-thiadiazol-2-yl)phenyl]oxy}propan-1-ol] | 250 to 2800 | 50 to 250 | > 10000 | 10 to 50 | – | – |
| CC(C)Nc1ncc(-c2nnc(-c3cc(F)c(OC[C@@H](N)CO)cc3Cl)s2)cn1 [Entry 90, (2S)-2-amino-3-{[5-chloro-2-fluoro-4-(5-{2-[(1-methylethyl)amino]pyrimidin-5-yl}-1,3,4-thiadiazol-2-yl)phenyl]oxy}propan-1-ol] | 250 to 2800 | 50 to 250 | ≤ 250 | – | ≤ 10 | – |
| CC(C)Nc1ccc(-c2nnc(-c3cc(F)c(OC[C@@H](N)[C@H](C)OP(=O)(O)O)cc3Cl)s2)cn1 [Entry 93, (1S,2R)-2-amino-3-{[5-chloro-2-fluoro-4-(5-{6-[(1-methylethyl)amino]pyridin-3-yl}-1,3,4-thiadiazol-2-yl)phenyl]oxy}-1-methylpropyl dihydrogen phosphate] | 10 to 50 | ≤ 10 | > 250 | – | ≤ 10 | – |
| Cc1cc(-c2nnc(-c3cc(F)c(OC[C@H](N)[C@@H](C)OP(=O)(O)O)cc3Cl)s2)cc(NC(C)C)n1 [Entry 94, (1R,2S)-2-amino-3-{[5-chloro-2-fluoro-4-(5-{2-methyl-6-[(1-methylethyl)amino]pyridin-4-yl}-1,3,4-thiadiazol-2-yl)phenyl]oxy}-1-methylpropyl dihydrogen phosphate] | 10 to 50 | ≤ 10 | ≤ 250 | – | ≤ 10 | – |
| Cc1cc(-c2nnc(-c3cc(F)c(OC[C@H](N)[C@H](C)OP(=O)(O)O)cc3Cl)s2)cc(NC(C)C)n1 [Entry 95, (1S,2S)-2-amino-3-{[5-chloro-2-fluoro-4-(5-{2-methyl-6-[(1-methylethyl)amino]pyridin-4-yl}-1,3,4-thiadiazol-2-yl)phenyl]oxy}-1-methylpropyl dihydrogen phosphate] | 50 to 250 | ≤ 10 | > 250 | ≤ 10 | – | – |
| Cc1cc(-c2nnc(-c3cc(F)c(OC[C@@H](N)[C@H](C)O)cc3Cl)s2)cnc1NC(C)C [Entry 96, (2S,3R)-3-amino-4-{[5-chloro-2-fluoro-4-(5-{5-methyl-6-[(1-methylethyl)amino]pyridin-3-yl}-1,3,4-thiadiazol-2-yl)phenyl]oxy}butan-2-ol] | 2800 to 10000 | 250 to 2800 | > 10000 | ≤ 10 | – | – |
| Cc1cc(-c2nnc(-c3cc(F)c(OC[C@@H](N)[C@@H](C)O)cc3Cl)s2)cc(NC(C)C)n1 [Entry 97, (2R,3R)-3-amino-4-{[5-chloro-2-fluoro-4-(5-{2-methyl-6-[(1-methylethyl)amino]pyridin-4-yl}-1,3,4-thiadiazol-2-yl)phenyl]oxy}butan-2-ol] | 50 to 250 | ≤ 10 | > 250 | ≤ 10 | – | – |
| Cc1cc(-c2nnc(-c3cc(F)c(OC[C@@H](N)[C@H](C)O)cc3Cl)s2)cc(NC(C)C)n1 [Entry 98, (2S,3R)-3-amino-4-{[5-chloro-2-fluoro-4-(5-{2-methyl-6-[(1-methylethyl)amino]pyridin-4-yl}-1,3,4-thiadiazol-2-yl)phenyl]oxy}butan-2-ol] | 50 to 250 | ≤ 10 | ≤ 250 | ≤ 10 | – | – |
| Cc1nc(-c2nnc(-c3cc(F)c(OC[C@H](N)[C@@H](C)O)cc3Cl)s2)ccc1NC(C)C [Entry 103, (2R,3S)-3-amino-4-{[5-chloro-2-fluoro-4-(5-{6-methyl-5-[(1-methylethyl)amino]pyridin-2-yl}-1,3,4-thiadiazol-2-yl)phenyl]oxy}butan-2-ol] | 10 to 50 | 10 to 50 | > 250 | 10 to 50 | – | – |
| (1R,2S)-2-amino-3-{[5-chloro-2-fluoro- 4-(5-{3-methyl-4-[(1- methylethyl)oxy]phenyl}-1,3,4- thiadiazol-2-yl)phenyl]oxy}-1- methylpropyl dihydrogen phosphate [Entry 99] | 10 to 50 | ≤ 10 | ≤ 250 | ≤ 10 | – | – |

The remaining lines, values ahead:

| EC50 [1] [nM] | EC50 [2] [nM] | EC50 (S1P3; read-out: Assay 5 EC50) [nM] | EC50 (S1P1; read-out: Assay 2b EC50) [nM] | EC50 (S1P1; [3]) [nM] | EC50 (S1P3; * = rEC50 measured rather than EC50, read-out: Assay 5 rEC50 (relative EC50, cells marked *)) [nM] | Molecule |
| --- | --- | --- | --- | --- | --- | --- |
| ≤ 10 | ≤ 10 | ≤ 250 | ≤ 10 | – | – | CC(C)Oc1ccc(-c2nnc(-c3cc(F)c(OC[C@H](N)COP(=O)(O)O)cc3Cl)s2)cc1C#N [Entry 79, (2S)-2-amino-3-{[5-chloro-4-(5-{3-cyano-4-[(1-methylethyl)oxy]phenyl}-1,3,4-thiadiazol-2-yl)-2-fluorophenyl]oxy}propyl dihydrogen phosphate] |
| 10 to 50 | ≤ 10 | > 10000 | ≤ 10 | – | – | CC(C)Oc1ccc(-c2nnc(-c3cc(F)c(OC[C@H](N)[C@@H](C)O)cc3Cl)s2)cc1C#N [Entry 82, 5-[5-(4-{[(2S,3R)-2-amino-3-hydroxybutyl]oxy}-2-chloro-5-fluorophenyl)-1,3,4-thiadiazol-2-yl]-2-[(1-methylethyl)oxy]benzonitrile] |
| 10 to 50 | ≤ 10 | > 10000 | ≤ 10 | – | – | CC(C)Oc1ccc(-c2nnc(-c3cc(F)c(OC[C@H](N)[C@H](C)O)cc3Cl)s2)cc1C#N [Entry 83, 5-[5-(4-{[(2S,3S)-2-amino-3-hydroxybutyl]oxy}-2-chloro-5-fluorophenyl)-1,3,4-thiadiazol-2-yl]-2-[(1-methylethyl)oxy]benzonitrile] |
| 10 to 50 | ≤ 10 | > 10000 | ≤ 10 | – | – | CC(C)Nc1ccc(-c2nnc(-c3cc(F)c(OC[C@H](N)[C@@H](C)OP(=O)(O)O)cc3Cl)s2)cn1 [Entry 85, (1R,2S)-2-amino-3-{[5-chloro-2-fluoro-4-(5-{6-[(1-methylethyl)amino]pyridin-3-yl}-1,3,4-thiadiazol-2-yl)phenyl]oxy}-1-methylpropyl dihydrogen phosphate] |
| 10 to 50 | ≤ 10 | – | ≤ 10 | – | > 250 | CC(C)Oc1ccc(-c2nnc(-c3cc(F)c(OC[C@@H](N)[C@@H](C)O)cc3Cl)s2)cc1C#N [Entry 86, 5-[5-(4-{[(2R,3R)-2-amino-3-hydroxybutyl]oxy}-2-chloro-5-fluorophenyl)-1,3,4-thiadiazol-2-yl]-2-[(1-methylethyl)oxy]benzonitrile] |
| ≤ 10 | ≤ 10 | ≤ 250 | – | ≤ 10 | – | (1R,2R)-2-amino-3-{[5-chloro-2-fluoro- 4-(5-{6-[(1-methylethyl)amino]pyridin- 3-yl}-1,3,4-thiadiazol-2-yl)phenyl]oxy}- 1-methylpropyl dihydrogen phosphate [Entry 102] |
| ≤ 10 | ≤ 10 | > 250 | ≤ 10 | – | – | (1S,2R)-2-amino-3-{[5-chloro-2-fluoro- 4-(5-{2-methyl-6-[(1- methylethyl)amino]pyridin-4-yl}-1,3,4- thiadiazol-2-yl)phenyl]oxy}-1- methylpropyl dihydrogen phosphate [Entry 101] |
